Target: human H3 receptor (Homo sapiens, UniProt Q9Y5N1)
Experiment: H3 Receptor Binding (Human) Method 2, [125I]-iodoproxyfan competitive radioligand binding
Design: expressed in transfected cells
Details: not given

Sequence of human H3 receptor (Q9Y5N1 whole entry): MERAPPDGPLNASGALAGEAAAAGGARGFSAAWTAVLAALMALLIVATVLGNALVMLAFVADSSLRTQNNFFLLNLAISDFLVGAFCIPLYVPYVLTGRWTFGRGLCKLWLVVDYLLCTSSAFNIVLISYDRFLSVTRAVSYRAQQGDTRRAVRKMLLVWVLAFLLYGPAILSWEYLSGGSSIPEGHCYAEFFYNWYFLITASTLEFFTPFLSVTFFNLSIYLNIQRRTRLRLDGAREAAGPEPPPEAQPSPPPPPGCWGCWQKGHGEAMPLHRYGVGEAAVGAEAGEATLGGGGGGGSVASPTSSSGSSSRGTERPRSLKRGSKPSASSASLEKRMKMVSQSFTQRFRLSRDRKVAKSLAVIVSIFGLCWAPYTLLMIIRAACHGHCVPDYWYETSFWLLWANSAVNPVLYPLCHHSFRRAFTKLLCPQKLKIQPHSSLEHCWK

Ki [nM] | SMILES
5 | O=C([C@H]1C[C@H](Oc2ccccn2)CN1)N1CCCN(C2CCC2)CC1 [Example 98, (2R,4S)-2-(4-Cyclobutyl-[1,4]diazepane-1-carbonyl)-4-(pyridin-2-yloxy)-pyrrolidine]
21 | CC(=O)N1C[C@@H](Oc2cccc(F)c2)C[C@H]1C(=O)N1CCCN(C2CCC2)CC1 [Example 115, (2S,4S)-1-[2-(4-Cyclobutyl-[1,4]diazepane-1-carbonyl)-4-(3-fluoro-phenoxy)-pyrrolidin-1-yl]-ethanone]
379 | CC(=O)N1C[C@H](Oc2cccc(F)c2)C[C@H]1C(=O)N1CCCN(C2CCC2)CC1 [Example 129, (2S,4R)-1-[2-(4-Cyclobutyl-[1,4]diazepane-1-carbonyl)-4-(3-fluoro-phenoxy)-pyrrolidin-1-yl]-ethanone]
569 | CC(=O)N1C[C@H](Oc2cccc(F)c2)C[C@@H]1C(=O)N1CCCN(C2CCC2)CC1 [Example 130]

Same assay, conditions: Method 2; SK-N-MC cell membranes; [125I]-iodoproxyfan 1 nM; apparent Ki; free base or hydrochloride salt; average of results; read-out: Human H3 Ki

Ki [nM] | SMILES
12 | CC(C)N1C[C@@H](Oc2ccc(F)cc2)C[C@@H]1C(=O)N1CCCN(C2CCC2)CC1 [Example 112, (2R,4S)-1-Isopropyl-1-cyclobutyl-2-(4-cyclobutyl-[1,4]diazepane-1-carbonyl)-4-(4-fluoro-phenoxy)-pyrrolidine]
55 | O=C([C@@H]1C[C@H](Oc2ccc(F)cc2)CN1C1CC1)N1CCCN(C2CCC2)CC1 [Example 141, (2S,4S)-2-(4-Cyclobutyl-[1,4]diazepan-1-yl)-[1-cyclopropyl-4-(4-fluoro-phenoxy)-pyrrolidin-2-yl]-methanone]

SMILES | Ki [nM]
CCOC(=O)N1C[C@@H](Oc2cccc(F)c2)C[C@@H]1C(=O)N1CCCN(C2CCC2)CC1 [Example 127, (2R,4S)-2-(4-Cyclobutyl-[1,4]diazepane-1-carbonyl)-4-(3-fluoro-phenoxy) pyrrolidine-1-carboxylic acid ethyl ester] | 16

Same assay, conditions: read-out: Human H3 Ki

Ki [nM] | SMILES
57 | CC(C)(C)OC(=O)N1C[C@H](Oc2cccc(F)c2)C[C@@H]1C(=O)N1CCCN(C2CCC2)CC1 [Example 55, (2R,4R)-2-(4-Cyclobutyl-[1,4]diazepane-1-carbonyl)-4-(3-fluoro-phenoxy)-pyrrolidine-1-carboxylic acid tert-butyl ester]
49 | CC(C)(C)OC(=O)N1C[C@H](Oc2ccc(F)cc2)C[C@@H]1C(=O)N1CCCN(C2CCC2)CC1 [Example 56, (2R,4R)-2-(4-Cyclobutyl-[1,4]diazepane-1-carbonyl)-4-(4-fluoro-phenoxy)-pyrrolidine-1-carboxylic acid tert-butyl ester]
93 | CC(C)(C)OC(=O)N1C[C@H](Oc2ccc(Cl)cc2)C[C@@H]1C(=O)N1CCCN(C2CCC2)CC1 [Example 57, (2R,4R)-4-(4-Chloro-phenoxy)-2-(4-cyclobutyl-[1,4]diazepane-1-carbonyl)-pyrrolidine-1-carboxylic acid tert-butyl ester]
211 | CC(C)(C)OC(=O)N1C[C@H](Oc2ccccc2)C[C@@H]1C(=O)N1CCCN(C2CCC2)CC1 [Example 58, (2R,4R)-2-(4-Cyclobutyl-[1,4]diazepane-1-carbonyl)-4-phenoxy-pyrrolidine-1-carboxylic acid tert-butyl ester]
160 | CC(C)(C)OC(=O)N1C[C@H](Oc2ccc(C#N)cc2)C[C@@H]1C(=O)N1CCCN(C2CCC2)CC1 [Example 60, (2R,4R)-4-(4-Cyano-phenoxy)-2-(4-cyclobutyl-[1,4]diazepane-1-carbonyl)-pyrrolidine-1-carboxylic acid tert-butyl ester]
17 | CC(C)(C)OC(=O)N1C[C@@H](Sc2ccc(F)cc2)C[C@@H]1C(=O)N1CCCN(C2CCC2)CC1 [Example 61, (2R,4S)-2-(4-Cyclobutyl-[1,4]diazepane-1-carbonyl)-4-(4-fluoro-phenylsulfanyl)-pyrrolidine-1-carboxylic acid tert-butyl ester]
5 | Cc1cccc(O[C@@H]2CN[C@@H](C(=O)N3CCCN(C4CCC4)CC3)C2)c1 [Example 74, (2R,4S)-4-(4-m-Tolyloxy)-2-(4-cyclobutyl-[1,4]diazepane-1-carbonyl)-pyrrolidine]
4 | O=C([C@H]1C[C@H](Oc2ccc(C(F)(F)F)cc2)CN1)N1CCCN(C2CCC2)CC1 [Example 75, (2R,4S)-4-(4-Trifluoromethyl-phenoxy)-2-(4-cyclobutyl-[1,4]diazepane-1-carbonyl)-pyrrolidine]
5 | Cc1ccc(O[C@@H]2CN[C@@H](C(=O)N3CCCN(C4CCC4)CC3)C2)cc1 [Example 76, (2R,4S)-4-(4-p-Tolyloxy)-2-(4-cyclobutyl-[1,4]diazepane-1-carbonyl)-pyrrolidine]
3 | Cc1ccccc1O[C@@H]1CN[C@@H](C(=O)N2CCCN(C3CCC3)CC2)C1 [Example 77, (2R,4S)-4-(4-o-Tolyloxy)-2-(4-cyclobutyl-[1,4]diazepane-1-carbonyl)-pyrrolidine]
20 | O=C([C@H]1C[C@H](Oc2ccc(F)cc2)CN1)N1CCCN(C2CC2)CC1 [Example 78, (2R,4S)-2-(4-Cyclopropyl-[1,4]diazepane-1-carbonyl)-4-(4-fluoro-phenoxy)-pyrrolidine]
12 | N#Cc1ccc(O[C@@H]2CN[C@@H](C(=O)N3CCCN(C4CC4)CC3)C2)cc1 [Example 79, (2R,4S)-4-(4-Cyano-phenoxy)-2-(4-cyclopropyl-[1,4]diazepane-1-carbonyl)-pyrrolidine]
40 | O=C([C@H]1C[C@H](Oc2ccc(F)cc2)CN1)N1CCN(C2CCCC2)CC1 [Example 80, (2R,4S)-2-(4-Cyclopentyl-piperazine-1-carbonyl)-4-(4-fluoro-phenoxy)-pyrrolidine]
23 | N#Cc1ccc(O[C@@H]2CN[C@@H](C(=O)N3CCN(C4CCCC4)CC3)C2)cc1 [Example 81, (2R,4S)-4-(4-Cyano-phenoxy)-2-(4-cyclopentyl-piperazine-1-carbonyl)-pyrrolidine]
1300 | CN(C)[C@H]1CCN(C(=O)[C@H]2C[C@H](Oc3cccc(F)c3)CN2)C1 [Example 85]
2 | Cc1cnc(F)cc1O[C@@H]1CN[C@@H](C(=O)N2CCCN(C3CCC3)CC2)C1 [Example 99, (2R,4S)-2-(4-Cyclobutyl-[1,4]diazepane-1-carbonyl)-4-(2-fluoro-5-methyl-pyridin-4-yloxy)-pyrrolidine]
2 | Cc1cnc(O[C@@H]2CN[C@@H](C(=O)N3CCCN(C4CCC4)CC3)C2)cc1I [Example 100, (2R,4S)-2-(4-Cyclobutyl-[1,4]diazepane-1-carbonyl)-4-(4-iodo-5-methyl-pyridin-2-yloxy)-pyrrolidine]
3 | O=C([C@H]1C[C@H](Oc2cccnc2)CN1)N1CCCN(C2CCC2)CC1 [Example 101, (2R,4S)-2-(4-Cyclobutyl-[1,4]diazepane-1-carbonyl)-4-(Pyridin-3-yloxy)-pyrrolidine]
594 | CC(C)N1C[C@@H](Oc2ccc(F)cc2)C[C@H]1C(=O)N1CCCN(C2CCC2)CC1 [Example 108, (2S,4S)-(4-Cyclobutyl-[1,4]diazepan-1-yl)-[4-(4-fluoro-phenoxy)-1-isopropyl-pyrrolidin-2-yl]-methanone]
55 | CCN1C[C@@H](Oc2ccc(F)cc2)C[C@H]1C(=O)N1CCCN(C2CCC2)CC1 [Example 109, (2S,4S)-(4-Cyclobutyl-[1,4]diazepan-1-yl)-[1-ethyl-4-(4-fluoro-phenoxy)-pyrrolidin-2-yl]-methanone]
7 | O=C([C@H]1C[C@H](Oc2ccc(F)cc2)CN1CC1CC1)N1CCCN(C2CCC2)CC1 [Example 113, (2R,4S)-1-Cyclopropylmethyl-2-(4-cyclobutyl-[1,4]diazepane-1-carbonyl)-4-(4-fluoro-phenoxy)-pyrrolidine]
18 | CC(C)C(=O)N1C[C@@H](Oc2cccc(F)c2)C[C@@H]1C(=O)N1CCCN(C2CCC2)CC1 [Example 123, (2R,4S)-1-[2-(4-Cyclobutyl-[1,4]diazepane-1-carbonyl)-4-(3-fluoro-phenoxy)-pyrrolidin-1-yl]-2-methyl-propan-1-one]
3 | CCC(=O)N1C[C@@H](Oc2cccc(F)c2)C[C@@H]1C(=O)N1CCCN(C2CCC2)CC1 [Example 125, (2R,4S)-1-[2-(4-Cyclobutyl-[1,4]diazepane-1-carbonyl)-4-(3-fluoro-phenoxy)-pyrrolidin-1-yl]-propan-1-one]
3 | CC(=O)N1C[C@@H](Oc2ccccn2)C[C@@H]1C(=O)N1CCCN(C2CCC2)CC1 [Example 132, (2R,4S)-1-[2-(4-Cyclobutyl-[1,4]diazepane-1-carbonyl)-4-(Pyridin-2-yloxy)-pyrrolidin-1-yl]-ethanone]
3 | CC(=O)N1C[C@@H](Oc2cccnc2)C[C@@H]1C(=O)N1CCCN(C2CCC2)CC1 [Example 133, (2R,4S)-1-[2-(4-Cyclobutyl-[1,4]diazepane-1-carbonyl)-4-(Pyridin-3-yloxy)-pyrrolidin-1-yl]-ethanone]
3 | CC(=O)N1C[C@@H](Oc2cccs2)C[C@@H]1C(=O)N1CCCN(C2CCC2)CC1 [Example 135, (2R,4S)-1-[2-(4-Cyclobutyl-[1,4]diazepane-1-carbonyl)-4-(thiophen-2-yloxy)-pyrrolidin-1-yl]-ethanone]
2 | CC(=O)N1C[C@@H](Oc2ccc3c(c2)OCCO3)C[C@@H]1C(=O)N1CCCN(C2CCC2)CC1 [Example 136, (2R,4S)-1-[2-(4-Cyclobutyl-[1,4]diazepane-1-carbonyl)-4-(2,3-dihydro-benzo[1,4]dioxin-6-yloxy)-pyrrolidin-1-yl]-ethanone]
1 | CS(=O)(=O)N1C[C@@H](Oc2ccc(F)cc2)C[C@@H]1C(=O)N1CCCN(C2CCC2)CC1 [Example 140, (2R,4S)-(4-Cyclobutyl-[1,4]diazepan-1-yl)-[4-(4-fluoro-phenoxy)-1-methanesulfonyl-pyrrolidin-2-yl]-methanone]

SMILES | Ki [nM]
O=C([C@H]1C[C@H](Oc2ccc(F)cc2)CN1C1CCC1)N1CCCN(C2CCC2)CC1 [Example 111, (2R,4S)-1-Cyclobutyl-2-(4-cyclobutyl-[1,4]diazepane-1-carbonyl)-4-(4-fluoro-phenoxy)-pyrrolidine] | 17
